Read-outs that look alike come from different tables or passages of the source.
Molecular target: human LRRK2 kinase (Homo sapiens, UniProt Q5S007)
Conditions: ATP 10 μM, 60 minutes at 25° C.
Procedure: Assay kits from Promega™ Corporation were used according to instructions and adapted as outlined herein. […] The kinase reaction was performed with kinase reaction buffer (40 mM Tris base pH 7.4, 20 mM MgCl2, 0.5 mM dithiothreitol), 0.1 mg/ml bovine serum albumin, distilled H2O). […] In brief, the kinase reactions were started by addition of ATP to the kinase reaction mixture. The resulting mixture was incubated for 60 minutes at 25° C., and then stopped by adding 5 μl of ADP-Glo™ reagent. After incubation at room temperature in the dark for 40 minutes, 10 μl of kinase detection reagent was added per well, and the mixture was incubated for 10 minutes. […] Positive and negative controls were performed in 0.5% DMSO in the presence and absence of LRRK2 kinases. Curve fitting and data presentations were performed using GraphPad Prism version 5.0 (GraphPad Software, Inc.).

human LRRK2 kinase, sequence (Q5S007 whole entry): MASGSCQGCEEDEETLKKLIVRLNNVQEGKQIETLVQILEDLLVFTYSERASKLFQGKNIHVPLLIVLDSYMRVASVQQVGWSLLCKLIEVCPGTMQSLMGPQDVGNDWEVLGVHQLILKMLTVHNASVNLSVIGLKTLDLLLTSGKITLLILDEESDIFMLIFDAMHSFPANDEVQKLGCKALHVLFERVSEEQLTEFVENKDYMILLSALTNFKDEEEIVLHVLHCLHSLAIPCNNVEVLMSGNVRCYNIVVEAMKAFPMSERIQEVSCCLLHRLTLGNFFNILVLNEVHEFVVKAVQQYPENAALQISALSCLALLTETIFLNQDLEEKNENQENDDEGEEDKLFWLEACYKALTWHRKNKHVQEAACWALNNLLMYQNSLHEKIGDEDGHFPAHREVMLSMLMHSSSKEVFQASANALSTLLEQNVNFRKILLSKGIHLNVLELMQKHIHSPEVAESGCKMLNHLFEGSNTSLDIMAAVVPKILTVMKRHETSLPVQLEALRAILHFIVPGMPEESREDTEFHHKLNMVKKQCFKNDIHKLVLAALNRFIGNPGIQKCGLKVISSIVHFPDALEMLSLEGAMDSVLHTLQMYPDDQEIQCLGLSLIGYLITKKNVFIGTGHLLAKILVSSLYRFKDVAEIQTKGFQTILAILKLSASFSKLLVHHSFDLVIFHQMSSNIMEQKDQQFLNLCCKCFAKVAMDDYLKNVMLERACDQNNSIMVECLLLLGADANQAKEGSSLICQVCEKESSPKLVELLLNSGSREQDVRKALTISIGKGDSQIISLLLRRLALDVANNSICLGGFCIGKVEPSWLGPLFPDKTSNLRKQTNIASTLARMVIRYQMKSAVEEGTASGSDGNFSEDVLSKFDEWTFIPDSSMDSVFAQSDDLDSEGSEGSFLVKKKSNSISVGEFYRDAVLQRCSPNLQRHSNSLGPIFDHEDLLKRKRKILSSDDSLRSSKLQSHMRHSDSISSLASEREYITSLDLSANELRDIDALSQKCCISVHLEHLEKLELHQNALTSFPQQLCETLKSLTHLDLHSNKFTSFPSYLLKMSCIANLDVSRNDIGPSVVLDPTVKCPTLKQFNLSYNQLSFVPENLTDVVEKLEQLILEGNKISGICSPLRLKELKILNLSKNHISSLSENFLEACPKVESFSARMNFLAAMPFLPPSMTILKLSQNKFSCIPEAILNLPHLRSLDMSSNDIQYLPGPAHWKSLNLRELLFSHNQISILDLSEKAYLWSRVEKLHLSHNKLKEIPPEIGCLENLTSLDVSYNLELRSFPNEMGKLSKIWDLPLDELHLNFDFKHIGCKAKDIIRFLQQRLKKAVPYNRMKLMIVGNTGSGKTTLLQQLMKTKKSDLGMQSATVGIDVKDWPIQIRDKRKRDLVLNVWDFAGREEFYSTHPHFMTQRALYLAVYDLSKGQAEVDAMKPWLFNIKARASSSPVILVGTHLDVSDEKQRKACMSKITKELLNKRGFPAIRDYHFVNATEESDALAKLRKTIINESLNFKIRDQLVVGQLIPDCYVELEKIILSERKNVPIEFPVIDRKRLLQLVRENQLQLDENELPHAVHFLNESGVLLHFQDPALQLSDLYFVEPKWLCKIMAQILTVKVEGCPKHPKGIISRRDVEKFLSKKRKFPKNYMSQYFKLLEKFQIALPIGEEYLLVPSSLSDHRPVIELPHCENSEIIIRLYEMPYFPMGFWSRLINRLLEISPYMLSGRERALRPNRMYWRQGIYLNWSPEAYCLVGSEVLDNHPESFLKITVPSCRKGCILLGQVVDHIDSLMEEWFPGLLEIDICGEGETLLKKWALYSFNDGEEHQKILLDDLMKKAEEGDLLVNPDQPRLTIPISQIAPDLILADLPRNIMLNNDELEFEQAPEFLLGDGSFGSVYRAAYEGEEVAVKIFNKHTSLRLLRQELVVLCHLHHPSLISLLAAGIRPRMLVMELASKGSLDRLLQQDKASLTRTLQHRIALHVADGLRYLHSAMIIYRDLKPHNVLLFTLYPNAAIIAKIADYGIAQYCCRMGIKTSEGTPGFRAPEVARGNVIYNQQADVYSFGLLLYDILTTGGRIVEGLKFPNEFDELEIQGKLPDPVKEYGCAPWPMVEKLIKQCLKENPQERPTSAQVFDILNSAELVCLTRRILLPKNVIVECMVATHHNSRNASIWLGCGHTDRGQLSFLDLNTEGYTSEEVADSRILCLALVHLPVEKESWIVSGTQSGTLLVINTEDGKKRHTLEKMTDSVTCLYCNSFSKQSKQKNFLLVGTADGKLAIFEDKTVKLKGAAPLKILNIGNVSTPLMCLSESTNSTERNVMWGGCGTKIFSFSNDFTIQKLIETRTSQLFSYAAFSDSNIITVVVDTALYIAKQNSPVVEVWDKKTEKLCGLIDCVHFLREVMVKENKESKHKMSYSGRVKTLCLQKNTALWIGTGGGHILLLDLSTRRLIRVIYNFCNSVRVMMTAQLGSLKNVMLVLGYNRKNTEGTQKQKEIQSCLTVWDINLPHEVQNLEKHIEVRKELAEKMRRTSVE

Compound | IC50 (LRRK2, ADP-Glo) [nM] | IC50 (read-out: LRRK2, ADP-Glo) [nM]
COCCNc1nc(Nc2ccc(C(=O)N3CCOCC3)c3c2OCCO3)nc2[nH]cc(Cl)c12 [Compound 9, (8-((5-chloro-4-((2-methoxyethyl)amino)-7H-pyrrolo[2,3-d]pyrimidin-2-yl)amino)-2,3-dihydrobenzo[b][1,4]dioxin-5-yl)(morpholino)methanone] | < 10 | 
CCC(C)Nc1nc(Nc2ccc(S(=O)(=O)N3CCOCC3)cc2OC)nc2[nH]cc(Cl)c12 (stereo in doubt) [Compound 51, (S)—N4-(sec-butyl)-5-chloro-N2-(2-methoxy-4-(morpholinosulfonyl)phenyl)-7H-pyrrolo[2,3-d]pyrimidine-2,4-diamine] |  | 100 to 1000
CCCCNc1nc(Nc2ccc(S(=O)(=O)N3CCC(N4CCOCC4)CC3)cc2OC)nc2[nH]cc(Cl)c12 [Compound 72, N4-butyl-5-chloro-N2-(2-methoxy-4-((4-morpholinopiperidin-1-yl)sulfonyl)phenyl)-7H-pyrrolo[2,3-d]pyrimidine-2,4-diamine] | 10 to 100 | 
COc1cc(P2(=O)CCN(C(C)=O)CC2)ccc1Nc1nc(NC(C)C)c2c(Cl)c[nH]c2n1 [Compound 89, 1-(4-(4-((5-chloro-4-(isopropylamino)-7H-pyrrolo[2,3-d]pyrimidin-2-yl)amino)-3-methoxyphenyl)-4-oxido-1,4-azaphosphinan-1-yl)ethan-1-one] | 10 to 100 | 
CCCNc1nc(Nc2ccc(C(=O)N3CCC(N4CCOCC4)CC3)c3c2OCC3)nc2[nH]cc(Cl)c12 [Compound 102, (7-((5-chloro-4-(propylamino)-7H-pyrrolo[2,3-d]pyrimidin-2-yl)amino)-2,3-dihydrobenzofuran-4-yl)(4-morpholinopiperidin-1-yl)methanone] | 10 to 100 | 
COc1cc(S(=O)(=O)N2CCOCC2)ccc1Nc1nc(N[C@H]2CCOC2)c2c(Cl)c[nH]c2n1 [Compound 60, (S)-5-chloro-N2-(2-methoxy-4-(morpholinosulfonyl)phenyl)-N4-(tetrahydrofuran-3-yl)-7H-pyrrolo[2,3-d]pyrimidine-2,4-diamine] | 10 to 100 | 
COc1cc(P2(=O)CCN(C(C)=O)CC2)ccc1Nc1nc(NC2CC2)c2c(Cl)c[nH]c2n1 [Compound 91, 1-(4-(4-((5-chloro-4-(cyclopropylamino)-7H-pyrrolo[2,3-d]pyrimidin-2-yl)amino)-3-methoxyphenyl)-4-oxido-1,4-azaphosphinan-1-yl)ethan-1-one] | < 10 | 
COCCNc1nc(Nc2ccc(S(=O)(=O)N3CCC(N4CCOCC4)CC3)cc2OC)nc2[nH]cc(Cl)c12 [Compound 22, 5-chloro-N2-(2-methoxy-4-((4-morpholinopiperidin-1-yl)sulfonyl)phenyl)-N4-(2-methoxyethyl)-7H-pyrrolo[2,3-d]pyrimidine-2,4-diamine] | < 10 | 
COCCNc1nc(Nc2ccc(C(=O)N3CCC(N4CCOCC4)CC3)c3c2OCCO3)nc2[nH]cc(Cl)c12 [Compound 5, (8-((5-chloro-4-((2-methoxyethyl)amino)-7H-pyrrolo[2,3-d]pyrimidin-2-yl)amino)-2,3-dihydrobenzo[b][1,4]dioxin-5-yl)(4-morpholinopiperidin-1-yl)methanone] | < 10 | 
CC[C@@H](C)Nc1nc(Nc2ccc(S(=O)(=O)N3CCC(N4CCOCC4)CC3)cc2OC)nc2[nH]cc(Cl)c12 [Compound 48, (R)—N4-(sec-butyl)-5-chloro-N2-(2-methoxy-4-((4-morpholinopiperidin-1-yl)sulfonyl)phenyl)-7H-pyrrolo[2,3-d]pyrimidine-2,4-diamine] | 100 to 1000 | 
COc1cc(P2(=O)CCN(C3CCOCC3)CC2)ccc1Nc1nc(NC2CCCC2)c2c(Cl)c[nH]c2n1 [Compound 79] | 10 to 100 | 
CCCCNc1nc(Nc2ccc(S(=O)(=O)N3CCOCC3)cc2OC)nc2[nH]cc(Cl)c12 [Compound 71, N4-butyl-5-chloro-N2-(2-methoxy-4-(morpholinosulfonyl)phenyl)-7H-pyrrolo[2,3-d]pyrimidine-2,4-diamine] | 10 to 100 | 
CC[C@@H](C)Nc1nc(Nc2ccc(S(=O)(=O)N3CCOCC3)cc2OC)nc2[nH]cc(Cl)c12 [Compound 47, (R)—N4-(sec-butyl)-5-chloro-N2-(2-methoxy-4-(morpholinosulfonyl)phenyl)-7H-pyrrolo[2,3-d]pyrimidine-2,4-diamine] | 100 to 1000 | 
CNc1nc(Nc2ccc(C(=O)N3CCC(N4CCOCC4)CC3)c3c2OCC3)nc2[nH]cc(Cl)c12 [Compound 86, (7-((5-chloro-4-(methylamino)-7H-pyrrolo[2,3-d]pyrimidin-2-yl)amino)-2,3-dihydrobenzofuran-4-yl)(4-morpholinopiperidin-1-yl)methanone] | < 10 | 
O=C(c1ccc(Nc2nc(NC3CCCCC3)c3c(Cl)c[nH]c3n2)c2c1CCO2)N1CCOCC1 [Compound 83, (7-((5-chloro-4-(cyclohexylamino)-7H-pyrrolo[2,3-d]pyrimidin-2-yl)amino)-2,3-dihydrobenzofuran-4-yl)(morpholino)methanone] | 100 to 1000 | 
COc1cc(S(=O)(=O)N2CCC(N3CCOCC3)CC2)ccc1Nc1nc(NC2CCC2)c2c(Cl)c[nH]c2n1 [Compound 28, 5-chloro-N4-cyclobutyl-N2-(2-methoxy-4-((4-morpholinopiperidin-1-yl)sulfonyl)phenyl)-7H-pyrrolo[2,3-d]pyrimidine-2,4-diamine] | 100 to 1000 | 
CNc1nc(Nc2ccc(S(=O)(=O)N3CCOCC3)cc2OC)nc2[nH]cc(Cl)c12 [Compound 11, 5-chloro-N2-(2-methoxy-4-(morpholinosulfonyl)phenyl)-N4-methyl-7H-pyrrolo[2,3-d]pyrimidine-2,4-diamine] | < 10 | 
COc1cc(S(=O)(=O)N2CCOCC2)ccc1Nc1nc(NC2CC2)c2c(Cl)c[nH]c2n1 [Compound 24, 5-chloro-N4-cyclopropyl-N2-(2-methoxy-4-(morpholinosulfonyl)phenyl)-7H-pyrrolo[2,3-d]pyrimidine-2,4-diamine] | 10 to 100 | 
O=C(c1ccc(Nc2nc(NCC3CCCC3)c3c(Cl)c[nH]c3n2)c2c1OCCO2)N1CCOCC1 [Compound 46, (8-((5-chloro-4-((cyclopentylmethyl)amino)-7H-pyrrolo[2,3-d]pyrimidin-2-yl)amino)-2,3-dihydrobenzo[b][1,4]dioxin-5-yl)(morpholino)methanone] | 100 to 1000 | 
CCCNc1nc(Nc2ccc(S(C)(=O)=O)cc2OC)nc2[nH]cc(Cl)c12 [Compound 8, 5-chloro-N2-(2-methoxy-4-(methylsulfonyl)phenyl)-N4-propyl-7H-pyrrolo[2,3-d]pyrimidine-2,4-diamine] | 10 to 100 | 
COc1cc(P2(=O)CCN(C(C)=O)CC2)ccc1Nc1nc(NCC(C)C)c2c(Cl)c[nH]c2n1 [Compound 97, 1-(4-(4-((5-chloro-4-(isobutylamino)-7H-pyrrolo[2,3-d]pyrimidin-2-yl)amino)-3-methoxyphenyl)-4-oxido-1,4-azaphosphinan-1-yl)ethan-1-one] | 10 to 100 | 
CS(=O)(=O)CCNc1nc(Nc2ccc(C(=O)N3CCOCC3)c3c2OCCO3)nc2[nH]cc(Cl)c12 [Compound 70, (8-((5-chloro-4-((2-(methylsulfonyl)ethyl)amino)-7H-pyrrolo[2,3-d]pyrimidin-2-yl)amino)-2,3-dihydrobenzo[b][1,4]dioxin-5-yl)(morpholino)methanone] | < 10 | 
COc1cc(S(C)(=O)=O)ccc1Nc1nc(NC2CCOCC2)c2c(Cl)c[nH]c2n1 [Compound 63, 5-chloro-N2-(2-methoxy-4-(methylsulfonyl)phenyl)-N4-(tetrahydro-2H-pyran-4-yl)-7H-pyrrolo[2,3-d]pyrimidine-2,4-diamine] | 10 to 100 | 

From US12479847B2 (DANA-FARBER CANCER INSTITUTE, INC., priority 2019, dated 2025)
